Laboratory results from patent publication US4711898A, “4-quinolone derivatives having anti-inflammatory, anti-allergic, antitussive, expectorant and antithrombotic activity” (Nippon Shinyaku Co., Ltd., priority 1982, dated 1987).
Where two headings read alike, the source gives them in different places.

Key:
carrageenin edema = experiment: Carrageenin edema at the hind foot of rats; type: in vivo, SD-strain rats; conditions: Rattus norvegicus, po, 3 h, read-out: % Inhibition (carrageenin edema)
Experimental: The anti-inflammatory action of the compounds of the present invention were evaluated by measuring the inhibition against carrageenin edema as set forth below. Carrageenin edema at the hind foot of rats: Experimental method. SD-strain rats of body weights of around 150 grams were used, each group consisting of five rats. A solution (0.1 ml) of 0.5% carrageenin dissolved in physiological saline water was subcutaneously injected into the right hind foot pat of the rats and, one hour prior to the injection of carrageenin, 200 mg/kg of test compound was given per os. Foot volumes of the rats before the carrageenin treatment and those of three hours after the treatment were measured and the differences were compared with those of the control group to adopt as a target of the effect of the compounds.

[1] = system: passive cutaneous anaphylaxis (DNP-As homocytotropic antiserum); experiment: passive cutaneous anaphylatic assay (PCA) in rats; type: in vivo, Wistar strain rats; conditions: Rattus norvegicus, po, 1 h, 10 mg/kg orally, one hour before antigen, read-out: PCA Inhibition Ratio %
Experimental: (§1) The compounds of the present invention have been evaluated for their anti-allergenic action by passive cutaneous anaphylatic assay (PCA) in rats and by measuring the anti-SRS-A action using ileus of guinea pigs.
(i) Antiserum abundant in homocytotropic antibody is prepared by the same method as Tada and Okumura did (cf. Journal of Immunology, vol. 106, page 1002, 1971). Thus, 1 mg (calculated as an amount of protein) of DNP-As (2,4-dinitrophenylcoupled ascaris extract) prepared by methods of Strejan and Campbell (Journal of Immunology, vol. 98, p. 893, 1967) and of Eisen (Journal of Amer. Chem. Soc., vol. 75, p 4593, 1953) and 1×10^10pertussis vaccine are administered to each paw of Wistar strain rats (180 to 200 grams body weights) by dividing the dose by four. Five days later, 0.5 mg of DNP-As is administered into muscle of back. Eight days later from the initial immunization, blood is taken from discending aorta under anesthetizing with ether, the resulting serum is stored at -80° and is melted before use.
(ii) Effect of tested compounds is investigated as follows:
Anti-serum obtained by th method (i) is diluted with physiological saline solution double by double successively and 0.05 ml of each diluted solution is administered into the back of Wistar strain rats (140 to 160 grams body weight) intradermally. After 72 hours, a solution of 2 mg (calculated as protein) of DNP-As and 2.5 mg of Evans Blue dissolved in 1 ml of physiological saline solution is administered intraveously at a dose of 5 ml/kg. After 30 minutes from the antigen solution administration, the animals are killed and the diameters of blue spots which appeared at the place where antiserum was administered were measured. The PCA test is conducted by the same method as already described using a diluted solutions of antiserum which always show 10 mm or more of spot diameters and the effect of the test compounds is judged. Thus antiserum diluted solutions are administered into two places in the back. Test compounds are administered orally at the dose of 10 mg/kg one hour before administration of the antigen solution. From the skin of reacted parts of killed animals, leaked or emitted dyestuff is extracted and the amount of the dyestuff is measured. The inhibition ratio is calculated by the following expression: [formula] in which A' is an amount of dyestuff in the group treated with the test compounds and A is that in the control group.

[2] = system: SRS-A (slow reacting substance of anaphylaxis) contraction of ileum; experiment: Anti-SRS-A action using ileus of guinea pigs; type: cell-based, Hartley strain male guinea pigs; conditions: Cavia porcellus, 5 min, 1/1000 mM; guinea pig ileum; SRS-A 20 units; compound five minutes before; read-out: 1/1000 mM SRS-A Inhibition Ratio %
Experimental: as §1
Anti-SRS-A action (An anti-acton against slow reacting substance of anaphylaxis).
Hartley strain male guinea pigs (300 to 350 grams body weight) are killed and 1.0 to 1.5 cm of ileum is immeidiately excised from ileocecal parts and is suspended in 10 ml of Tyrode solution (95% 02 -5% CO2 saturation) containing 10^-7 g/ml of atropine and 10^-6 g/ml of pyrilamine. SRS-A (20 units) (the amount of SRS-A showing the same contradiction as 5 ng of histamine is defined as 1 unit) prepared by using sensitized guinea pig lung is given to cause contraction there. Then antagonistic action of test compounds treated five minutes ago against the contraction is measured and recorded via isotonic transducer. [formula] in which A' is a height of contraction of SRS-A+test compound and A is that of SRS-A.

[3] = 200 mg/kg per os, one hour before carrageenin, foot volume three hours after

Work on `CC(=O)Oc1ccccc1C(=O)O` [Acetylsalicylic Acid, reference compound] yielded an inhibition in vivo at 200 mg/kg (carrageenin edema) of 31.6%.
`COC(=O)c1ccc2c(c1)C(=O)CC(c1ccccc1)=N2` [Example 1, Methyl 2-phenyl-4-quinolone-6-carboxylate] showed an inhibition in vivo at 10 mg/kg [1] of 25.4%, an inhibition at 1 µM [2] of 77% and an inhibition in vivo at 200 mg/kg (carrageenin edema; [3]) of 34%.
`CCOC(=O)c1ccc2c(c1)C(=O)CC(c1ccccc1)=N2` [Example 4, Ethyl 2-phenyl-4-quinolone-6-carboxylate] showed an inhibition in vivo at 10 mg/kg [1] of 25.7%, an inhibition at 1 µM [2] of 27.5% and an inhibition in vivo at 200 mg/kg (carrageenin edema; [3]) of 14.2%.
Compound `O=C(O)c1ccc2[nH]c(-c3ccccc3Cl)cc(=O)c2c1` [Example 22] has an inhibition in vivo at 10 mg/kg [1] of 35.8%, an inhibition at 1 µM [2] of 26.4% and an inhibition in vivo at 200 mg/kg (carrageenin edema; [3]) of 14.8%.
`O=C(O)c1ccc2[nH]c(-c3ccc(Cl)c(Cl)c3)cc(=O)c2c1` [Example 38] showed an inhibition in vivo at 10 mg/kg [1] of 20.4%, an inhibition at 1 µM [2] of 20.5% and an inhibition in vivo at 200 mg/kg (carrageenin edema; [3]) of 12.8%.
In the case of `COC(=O)c1ccc2[nH]c(-c3cc(Cl)ccc3Cl)cc(=O)c2c1` [Example 39], the inhibition in vivo at 10 mg/kg [1] is reported as 24.8%, the inhibition at 1 µM [2] is reported as 66% and the inhibition in vivo at 200 mg/kg (carrageenin edema; [3]) is reported as 30%.
With `COC(=O)c1ccc2[nH]c(-c3ccccc3C)cc(=O)c2c1` [Example 41] the inhibition in vivo at 10 mg/kg [1] was 29.5%, the inhibition at 1 µM [2] was 29.1% and the inhibition in vivo at 200 mg/kg (carrageenin edema; [3]) was 18.9%.
Compound `COC(=O)c1ccc2[nH]c(-c3ccc(OC)cc3OC)cc(=O)c2c1` [Example 64] has an inhibition in vivo at 10 mg/kg [1] of 17.7%, an inhibition at 1 µM [2] of 48.2% and an inhibition in vivo at 200 mg/kg (carrageenin edema; [3]) of 10.1%.
`COC(=O)c1ccc2[nH]c(-c3ccncc3)cc(=O)c2c1` [Example 70] showed an inhibition in vivo at 10 mg/kg [1] of 22.3%, an inhibition at 1 µM [2] of 21.4% and an inhibition in vivo at 200 mg/kg (carrageenin edema; [3]) of 17.1%.
`COC(=O)c1ccc2[nH]c(-c3ccco3)cc(=O)c2c1` [Example 76] gave an inhibition in vivo at 10 mg/kg [1] of 21.3%, an inhibition at 1 µM [2] of 25.6% and an inhibition in vivo at 200 mg/kg (carrageenin edema; [3]) of 14.5%.
`CCOC(=O)c1cccc2c(=O)cc(-c3cccc(Cl)c3)[nH]c12` [Example 86] showed an inhibition in vivo at 10 mg/kg [1] of 20.1%, an inhibition at 1 µM [2] of 62.5% and an inhibition in vivo at 200 mg/kg (carrageenin edema; [3]) of 29.5%.
`Cc1ccc(-c2cc(=O)c3cccc(C(=O)O)c3[nH]2)c(C)c1` [Example 95] gave an inhibition in vivo at 10 mg/kg [1] of 24.2% and an inhibition at 1 µM [2] of 22.8%.
For `CCCCCCCCc1ccc(-c2cc(=O)c3cccc(C(=O)OCC)c3[nH]2)cc1` [Example 96], the inhibition in vivo at 10 mg/kg [1] was 21.5% and the inhibition at 1 µM [2] was 23.8%.
With `CCCCCCCCc1ccc(-c2cc(=O)c3cccc(C(=O)O)c3[nH]2)cc1` [Example 97] the inhibition in vivo at 10 mg/kg [1] was 22% and the inhibition at 1 µM [2] was 33.7%.
`CCOC(=O)c1cccc2c(=O)cc(-c3ccc(OC)c(OC)c3)[nH]c12` [Example 98] showed an inhibition in vivo at 10 mg/kg [1] of 16.4%, an inhibition at 1 µM [2] of 20.4% and an inhibition in vivo at 200 mg/kg (carrageenin edema; [3]) of 16.1%.
Work on `COc1ccc(-c2cc(=O)c3cccc(C(=O)O)c3[nH]2)cc1OC` [Example 99] yielded an inhibition in vivo at 10 mg/kg [1] of 13.2%, an inhibition at 1 µM [2] of 21.7% and an inhibition in vivo at 200 mg/kg (carrageenin edema; [3]) of 36.8%.
With `COC(=O)c1cccc2c1N=C(c1ccccc1Cl)CC2=O` [Example 101, Methyl 2-(2-chlorophenyl)-4-quinolone-8-carboxylate] the inhibition in vivo at 10 mg/kg [1] was 17.4% and the inhibition at 1 µM [2] was 14.7%.
`CCOC(=O)c1cccc2c(=O)cc(-c3ccc(Cl)cc3)[nH]c12` [Example 103] showed an inhibition in vivo at 10 mg/kg [1] of 14.7% and an inhibition at 1 µM [2] of 12.4%.
With `CCOC(=O)c1cccc2c(=O)cc(-c3ccccc3C)[nH]c12` [Example 104] the inhibition in vivo at 10 mg/kg [1] was 10.4%, the inhibition at 1 µM [2] was 19.8% and the inhibition in vivo at 200 mg/kg (carrageenin edema; [3]) was 53.7%.
With `CCOC(=O)c1cccc2c(=O)cc(-c3ccc(C)c(C)c3)[nH]c12` [Example 105] the inhibition in vivo at 10 mg/kg [1] was 17.3% and the inhibition at 1 µM [2] was 10.4%.
Work on `CCOC(=O)c1cccc2c(=O)cc(-c3ccc(C(C)C)cc3)[nH]c12` [Example 106] yielded an inhibition in vivo at 10 mg/kg [1] of 33.4%, an inhibition at 1 µM [2] of 44% and an inhibition in vivo at 200 mg/kg (carrageenin edema; [3]) of 50.9%.
